Measurements: patent US20260138957A1, “UREA-LINKED 2-AMINOIMIDAZOLE DIMER POTENTIATORS” (UNIVERSITY OF NOTRE DAME DU LAC, priority 2022, published 2026)

Experiments:
[1] = tested on: A. baumannii strain 5075 (AB5075); assay: Standalone MIC against AB5075 (compound or antibiotic alone); format: cell-based, Acinetobacter baumannii; design: MIC against AB5075 (inherent anti-bacterial activity): unit not given beside the values; details: compound alone; for MIC: Acinetobacter baumannii, AB5075; for MIC against AB5075 (inherent anti-bacterial activity): newly synthesized material
Source text: Dimers were first analyzed for standalone toxicity against AB5075.

[2] = tested on: A. baumannii strain 5075 (AB5075); assay: Clarithromycin potentiation against AB5075 (CLR MIC in presence of adjuvant); format: cell-based, Acinetobacter baumannii; details: for CLR potentiation activity (in words): AB5075, 30 μM
[3] = tested on: panel of A. baumannii isolates; assay: CLR potentiation against panel of A. baumannii isolates; format: cell-based, Acinetobacter baumannii; details: 25 AB strains, adjuvant at 10 μM (4.8 μg/mL) or less
[4] = tested on: panel of A. baumannii isolates; assay: Standalone MIC/toxicity against panel of A. baumannii isolates; format: cell-based, Acinetobacter baumannii
AB5075 = assay: Potentiation of azithromycin, erythromycin and rifampin against AB5075; format: cell-based, Acinetobacter baumannii; details: for fold decrease of RIF MIC: AB5075, adjuvant at 10 μM; for activity in combination with AZM, ERM and RIF (in words): AB5075, adjuvant at ≤30% their MIC
K. pneumoniae 2146 = assay: Combination with RIF against K. pneumoniae 2146; format: cell-based, Klebsiella pneumoniae; details: K. pneumoniae 2146, compared with the parent dimers
HepG2 cells = assay: Cytotoxicity, XTT assay with HepG2 cells; details: mammalian cell toxicity
AB 5075 = assay: Colistin MIC in absence or presence of compounds against AB 5075; format: cell-based, Acinetobacter baumannii; details: adjuvant at 30 μM, AB5075
Source text: However, dropping LOS comes with fitness costs such as reduced growth rates, lower virulence, and increased sensitivity towards certain antibiotics.

[5] = Microsomal (metabolic) stability; format: in vitro ADME; details: 60 minutes
Plasma stability = format: in vitro ADME; details: 4 hours
A. baumannii = assay: CLR adjuvant activity with exogenous LOS added to the media; format: cell-based, Acinetobacter baumannii; details: LOS from AB5075 at 0.2 mg/mL or 0.5 mg/mL
Description: First, we examined the impact that addition of MgCl2 had on activity. Divalent cations, such as Mg^2+, are known to stabilize the outer membrane of gram-negative bacteria and the activity of membrane disruptors are known to be muted/abrogated by the addition of such cations. When the media was supplemented with MgCl2 (20 mM final concentration), activity was essentially abolished. As suppression of activity could conceivably originate from either blocking the compound's mechanism of action or simply making the membrane more impermeable that leads to the inability of the compound to penetrate the outer membrane, we next studied the impact that the addition of exogenous LOS had upon activity.

Row | Structure (SMILES) | MIC [1] | Clarithromycin (CLR) MIC ([2]; adjuvant at 7.5 μM, AB5075) | Fold Reduction of CLR MIC ([2]; adjuvant at 7.5 μM, AB5075) | Clarithromycin (CLR) MIC ([2]; adjuvant at 10 μM, AB5075) | Fold Reduction of CLR MIC ([2]; adjuvant at 10 μM, AB5075) | Clarithromycin (CLR) MIC ([2]; adjuvant at 20 μM, AB5075) | Fold Reduction of CLR MIC ([2]; adjuvant at 20 μM, AB5075) | Clarithromycin (CLR) MIC ([2]; adjuvant at 30 μM, AB5075) | Fold Reduction of CLR MIC ([2]; adjuvant at 30 μM, AB5075) | further results
1 | Nc1nc(-c2cccc(NC(=O)Nc3cc(F)cc(-c4c[nH]c(N)n4)c3)c2)c[nH]1 [Compound 9l] | > 200 µM | 1 µg/mL | 32 fold | 0.5 µg/mL | 64 fold | 0.0625 µg/mL | 512 fold | 0.0625 µg/mL | 512 fold | 
2 | Nc1nc(-c2cc(NC(=O)Nc3ccc(F)c(-c4c[nH]c(N)n4)c3)ccc2F)c[nH]1 [Compound 9b] | > 200 µM | 1 µg/mL | 32 fold | 0.5 µg/mL | 64 fold | 0.25 µg/mL | 128 fold | 0.125 µg/mL | 256 fold | Clarithromycin (CLR) MIC ([2]; adjuvant at 5 μM, AB5075): 2 µg/mL; Fold Reduction of CLR MIC ([2]; adjuvant at 5 μM, AB5075): 16 fold
3 | Nc1nc(-c2ccc(NC(=O)Nc3ccc(-c4c[nH]c(N)n4)c(C(F)(F)F)c3)cc2C(F)(F)F)c[nH]1 [Compound 9c] | > 200 µM |  |  |  |  |  |  | 2 µg/mL | 16 fold | CLR potentiation activity (in words) [2]: abolished all activity
4 | Nc1nc(-c2cc(F)cc(NC(=O)Nc3cc(F)cc(-c4c[nH]c(N)n4)c3)c2)c[nH]1 [Compound 9g] | > 200 µM | 0.25 µg/mL | 128 fold | 0.125 µg/mL | 256 fold | 0.0625 µg/mL | 512 fold | ≤0.0625 µg/mL |  | CLR MIC ([2]; adjuvant at 2.5 μM, AB5075): 1 µg/mL; Fold Reduction of CLR MIC ([2]; adjuvant at 2.5 μM, AB5075): 32 fold; Clarithromycin (CLR) MIC ([2]; adjuvant at 5 μM, AB5075): 0.5 µg/mL; Fold Reduction of CLR MIC ([2]; adjuvant at 5 μM, AB5075): 64 fold; lowering of CLR MIC values [3]: at least four-fold; toxicity of compound alone (in words) [4]: no toxicity; fold decrease of RIF MIC (AB5075): 32 fold; activity in combination with AZM, ERM and RIF (in words) (AB5075): significant activity; potentiation of RIF (in words) (K. pneumoniae 2146): greater potentiation activity at lower concentrations; IC50, HepG2 cells (HepG2 cells): > 256 µg/mL; IC50 (HepG2 cells; read-out: IC50, HepG2 cells): > 530 µM
5 | Nc1nc(-c2ccc(NC(=O)Nc3ccc(-c4c[nH]c(N)n4)c(F)c3)cc2)c[nH]1 [Compound 9m] | > 200 µM | 2 µg/mL | 16 fold | 1 µg/mL | 32 fold | 0.5 µg/mL | 64 fold | 0.0625 µg/mL | 512 fold | 
6 | Nc1nc(-c2ccc(NC(=O)Nc3ccc(-c4c[nH]c(N)n4)cc3)cc2)c[nH]1 [Compound 3] |  | 8 µg/mL | 4 fold | 4 µg/mL | 8 fold | 0.5 µg/mL | 64 fold | 0.125 µg/mL | 256 fold | MIC against AB5075 (inherent anti-bacterial activity) [1]: > 200; Colistin MIC (AB 5075): 2 µg/mL; activity in combination with AZM, ERM and RIF (in words) (AB5075): significant activity
7 | Nc1nc(-c2cccc(NC(=O)Nc3cccc(-c4c[nH]c(N)n4)c3)c2)c[nH]1 [Compound 5] |  | 1 µg/mL | 32 fold | 0.5 µg/mL | 64 fold | 0.0625 µg/mL | 512 fold | 0.03125 µg/mL | 1024 fold | MIC ([1]; value in brackets): 447 µg/mL; MIC against AB5075 (inherent anti-bacterial activity) [1]: 200; Clarithromycin (CLR) MIC ([2]; adjuvant at 5 μM, AB5075): 4 µg/mL; Fold Reduction of CLR MIC ([2]; adjuvant at 5 μM, AB5075): 8 fold; Colistin MIC (AB 5075): 2 µg/mL; activity in combination with AZM, ERM and RIF (in words) (AB5075): significant activity; microsomal stability (in words) [5]: steady concentration over 60 minutes; plasma stability (in words) (Plasma stability): steady concentration over 4 hours
8 | Cc1cc(-c2c[nH]c(N)n2)ccc1NC(=O)Nc1ccc(-c2c[nH]c(N)n2)cc1C [Compound 14c] | > 200 µM |  |  |  |  |  |  | 32 µg/mL | 1 fold | CLR potentiation activity (in words) [2]: abolished all activity
9 | Nc1nc(-c2ccc(NC(=O)Nc3ccc(-c4c[nH]c(N)n4)cc3F)c(F)c2)c[nH]1 [Compound 14a] | > 200 µM |  |  |  |  |  |  | 4 µg/mL | 8 fold | 
10 | Nc1nc(-c2ccc(NC(=O)Nc3cccc(-c4c[nH]c(N)n4)c3)cc2)c[nH]1 [Compound 4] |  |  |  | 16 µg/mL | 2 fold | 1 µg/mL | 32 fold | 0.125 µg/mL | 256 fold | MIC ([1]; value in brackets): > 447 µg/mL; MIC against AB5075 (inherent anti-bacterial activity) [1]: > 200; Colistin MIC (AB 5075): 0.25 µg/mL; activity in combination with AZM, ERM and RIF (in words) (AB5075): significant activity
11 | Nc1nc(-c2cccc(NC(=O)Nc3cccc(-c4c[nH]c(N)n4)c3F)c2F)c[nH]1 [Compound 9f] | > 200 µM | 2 µg/mL | 16 fold | 1 µg/mL | 32 fold | 0.5 µg/mL | 64 fold | 0.25 µg/mL | 128 fold | 
12 | Nc1nc(-c2ccc(F)c(NC(=O)Nc3ccc(-c4c[nH]c(N)n4)c(F)c3)c2)c[nH]1 [Compound 9i] | > 200 µM |  |  |  |  |  |  | 8 µg/mL | 4 fold | 
13 | COc1cc(-c2c[nH]c(N)n2)ccc1NC(=O)Nc1ccc(-c2c[nH]c(N)n2)cc1OC [Compound 9d] | 200 µM |  |  |  |  |  |  | 8 µg/mL | 4 fold | CLR potentiation activity (in words) [2]: abolished all activity
14 | Nc1nc(-c2ccc(NC(=O)Nc3ccc(-c4c[nH]c(N)n4)c(Cl)c3)cc2Cl)c[nH]1 [Compound 14b] | > 200 µM |  |  |  |  |  |  | 32 µg/mL | 1 fold | CLR potentiation activity (in words) [2]: abolished all activity
15 | Nc1nc(-c2ccc(NC(=O)Nc3ccc(F)c(-c4c[nH]c(N)n4)c3)cc2F)c[nH]1 [Compound 9h] | > 200 µM |  |  |  |  | 4 µg/mL | 8 fold | 0.5 µg/mL | 64 fold | 
16 | Nc1nc(-c2ccc(NC(=O)Nc3ccc(-c4c[nH]c(N)n4)c(F)c3)cc2F)c[nH]1 [Compound 9a] | > 200 µM | 0.5 µg/mL | 64 fold | 0.125 µg/mL | 256 fold | 0.0625 µg/mL | 512 fold | 0.03125 µg/mL | 1024 fold | Clarithromycin (CLR) MIC ([2]; adjuvant at 5 μM, AB5075): 2 µg/mL; Fold Reduction of CLR MIC ([2]; adjuvant at 5 μM, AB5075): 16 fold; lowering of CLR MIC values [3]: at least four-fold; toxicity of compound alone (in words) [4]: no toxicity; fold decrease of RIF MIC (AB5075): 32 fold; activity in combination with AZM, ERM and RIF (in words) (AB5075): significant activity; potentiation of RIF (in words) (K. pneumoniae 2146): greater potentiation activity at lower concentrations; CLR adjuvant activity with exogenous LOS (in words) (A. baumannii): no loss of adjuvant activity; microsomal stability (in words) [5]: steady concentration over 60 minutes; plasma stability (in words) (Plasma stability): steady concentration over 4 hours
17 | Nc1nc(-c2ccc(F)c(NC(=O)Nc3cc(-c4c[nH]c(N)n4)ccc3F)c2)c[nH]1 [Compound 9e] | > 200 µM |  |  |  |  |  |  | 32 µg/mL | 1 fold | 
18 | Nc1nc(-c2cc(F)cc(NC(=O)Nc3ccc(-c4c[nH]c(N)n4)c(F)c3)c2)c[nH]1 [Compound 9j] | > 200 µM | 0.25 µg/mL | 128 fold | 0.125 µg/mL | 256 fold | 0.125 µg/mL | 256 fold | 0.0625 µg/mL | 512 fold | Clarithromycin (CLR) MIC ([2]; adjuvant at 5 μM, AB5075): 1 µg/mL; Fold Reduction of CLR MIC ([2]; adjuvant at 5 μM, AB5075): 32 fold
